Values quoted from earlier work in patent US12150969B2, “Synthetically enveloped virus” (priority 2016, dated 2024).

Experiments:
[1] = test system: Ras-dependent tumor growth; conditions: established cancer models

CC(C)=CCC/C(C)=C/CC/C(C)=C/CSc1ccccc1C(=O)O [FTS, S-trans, trans-farnesylthiosalicylic acid]
tumor growth and toxicity in animals [1]: inhibition of tumor growth in animals with no adverse toxicity | Ras antagonist activity (Ras): potent and especially nontoxic Ras antagonist
